# What was measured:
# [1] = target: T1, OR51E1 (Homo sapiens, UniProt Q8TCB6); assay: Luciferase reporter gene assay, OR51E1 expressed in HEK293 cells; format: cell-based; conditions: for Inhibition ratio of OR51E1 response: response to hexanoic acid, test substance added together with hexanoic acid, HEK293
# T1 construct: expressed in transfected cells; host or cells: HEK293
# T1 sequence (Q8TCB6 1-318): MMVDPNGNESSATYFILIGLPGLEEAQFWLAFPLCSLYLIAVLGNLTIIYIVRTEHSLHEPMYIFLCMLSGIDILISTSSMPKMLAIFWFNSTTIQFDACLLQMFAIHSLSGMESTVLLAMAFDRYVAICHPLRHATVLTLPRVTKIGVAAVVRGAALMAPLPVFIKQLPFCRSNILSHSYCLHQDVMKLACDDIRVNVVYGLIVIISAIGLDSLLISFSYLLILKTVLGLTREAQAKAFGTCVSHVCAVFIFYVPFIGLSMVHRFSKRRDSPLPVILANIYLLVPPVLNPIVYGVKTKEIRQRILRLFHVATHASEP
# Protocol: (§1) Cloning of human olfactory receptors was performed based on the sequence information registered in GenBank, through PCR with human genomic DNA female (G1521: Promega) as a template. Each of the genes amplified through PCR was inserted into a pENTR vector (Invitrogen) according to an instruction manual. Then, the gene-inserted vector was digested with NotI and AscI, and the obtained fragments were inserted into NotI and AscI sites located downstream of the Flag-Rho tag sequence in the pME18S vector.
# (§2) Each of the 350 types of human olfactory receptors was expressed in HEK293 cells. A reaction solution having a composition shown in Table 2 was prepared on a clean bench, and left to stand for 15 minutes. The solution was dispensed to each well of a 96-well plate (BD). Subsequently, […] cells (100 μL, 3×10^5 cells/cm^2) were seeded in each well and cultured for 24 hours in an incubator at 37° C. and under 5% CO2 conditions.
# (§3) The olfactory receptor expressed in HEK293 cell was conjugated with cell-intrinsic Gas to activate adenylate cyclase, and thereby the level of intracellular cAMP was increased. For the measurement of the response to odor in this study, the luciferase reporter gene assay was used, in which an increase in the amount of intracellular cAMP was monitored by using the emission value originating from firefly luciferase gene (fluc2P-CRE-hygro) as an indicator. Furthermore, a gene product obtained by fusing renilla luciferase gene in the downstream of CMV promoter (hRluc-CMV) was simultaneously introduced, and this was used as an internal standard for correcting an error in the transgenesis efficiency or the number of cells. The medium was removed from the culture prepared in the above-described section 3) by using a Pipetman, and 75 μl of a solution containing an odor substance (1 mM hexanoic acid or 300 μM nonanoic acid) prepared in CD293 medium (Invitrogen) was added thereto. The cells were cultured for 4 hours in a CO2 incubator, and the luciferase gene was sufficiently expressed in the cells. For the measurement of luciferase activity, the measurement was carried out by using a Dual-Glo™ luciferase assay system (Promega) according to the operation manual of the product. A value calculated by dividing the emission value, derived from a firefly luciferase induced by the stimulation with an odor substance, by the emission value in cells that were not-stimulated with an odor substance, was designated as a fold increase, and used as an index of response intensity.
# (§4) OR2W1, OR10A6, OR51E1, OR51I2, and OR51L1 were respectively expressed in HEK293 cells by the same method as that used in Example 1, and a luciferase assay was carried out. In the luciferase assay, hexanoic acid was used as the odorous substance, and test substances were added together with hexanoic acid. The response of the olfactory receptors to hexanoic acid was measured, and a decrease in the receptor response to the addition of test substances was evaluated.
# (§5) The inhibition ratios of the receptor response to test substances were calculated as follows. The emission value (Y) obtained from the cells in which the same receptors were introduced but no odor stimulation was conducted, was subtracted from the emission value derived from firefly luciferase (X) induced by odor stimulation with hexanoic acid alone. Similarly, the emission value (Y) obtained from the cells in which no odor stimulation was conducted, was subtracted from the emission value (Z) caused by stimulation with a mixture of hexanoic acid and a test substance. By the following calculation formula, the inhibitory activity of the test substance to receptor response was calculated based on the increment of the emission value (X−Y) caused by stimulation of hexanoic acid alone. Multiple independent experiments were performed in duplicate, and the average of each experiment was obtained. Inhibition ratio (%)={1−(Z−Y)/(X−Y)}×100 […]
# [2] = Sensory evaluation test of isovaleric acid odor inhibition; format: in vivo; conditions: test substance diluted 1000 times with propylene glycol, 5 panelists (FIG. 7)
# Protocol: (§6) Cotton balls were introduced into a glass bottle (Hakuyo Glass Co., Ltd. No. 11, capacity 110 ml), and hexanoic acid diluted 100 times with propylene glycol, nonanoic acid diluted 10 times with propylene glycol, or isovaleric acid diluted 1000 times with propylene glycol, as a malodor, and a test substance were added dropwise in an amount of […] to the cotton balls. The glass bottle was left to stand overnight at room temperature, and the odor molecules were sufficiently volatilized in the glass bottle. A sensory evaluation test was carried out by a panel of three panelists (5 panelists for isovaleric acid), and while the intensity of odor in the case of adding dropwise the malodor alone was rated as 5, the intensity of the malodor in the case of incorporating a test substance was evaluated on the basis of a system of 20 grades from 0 point to 10 points (0.5 points per grade). […]
# [3] = Sensory evaluation test of cresol odor inhibition (specificity); format: in vivo; conditions: cresol and test substance each diluted 100 times with propylene glycol (FIG. 8)
# Protocol: Cotton balls were introduced into a glass bottle (Hakuyo Glass Co., Ltd. No. 11, capacity 110 ml), and hexanoic acid diluted 100 times with propylene glycol, nonanoic acid diluted 10 times with propylene glycol, or isovaleric acid diluted 1000 times with propylene glycol, as a malodor, and a test substance were added dropwise in an amount of […] to the cotton balls. The glass bottle was left to stand overnight at room temperature, and the odor molecules were sufficiently volatilized in the glass bottle. A sensory evaluation test was carried out by a panel of three panelists (5 panelists for isovaleric acid), and while the intensity of odor in the case of adding dropwise the malodor alone was rated as 5, the intensity of the malodor in the case of incorporating a test substance was evaluated on the basis of a system of 20 grades from 0 point to 10 points (0.5 points per grade).
# In the experiment, cresol diluted 100 times with propylene glycol was used as the malodor, and florhydral diluted 100 times with propylene glycol was used as the test substance.
# [4] = target: T2, OR51I2 (Homo sapiens, UniProt Q9H344); assay: Luciferase reporter gene assay, OR51I2 expressed in HEK293 cells; format: cell-based
# T2 construct: expressed in transfected cells; host or cells: HEK293
# T2 sequence (Q9H344 1-312): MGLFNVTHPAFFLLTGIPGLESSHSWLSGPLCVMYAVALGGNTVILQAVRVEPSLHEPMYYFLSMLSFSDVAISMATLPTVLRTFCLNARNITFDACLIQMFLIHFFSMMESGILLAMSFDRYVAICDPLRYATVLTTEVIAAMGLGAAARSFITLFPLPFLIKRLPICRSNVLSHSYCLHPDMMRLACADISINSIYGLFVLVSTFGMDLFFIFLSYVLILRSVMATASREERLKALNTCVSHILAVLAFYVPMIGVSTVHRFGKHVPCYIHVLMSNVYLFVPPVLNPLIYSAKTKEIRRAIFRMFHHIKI
# Protocol: as §1, §2, §3, §4, §5
# [5] = Sensory evaluation test of nonanoic acid odor inhibition; format: in vivo; conditions: test substance diluted 10 times with propylene glycol (FIG. 6)
# Protocol: as §6
# [6] = 1 mM hexanoic acid, test substance 3, 10, 30, 100, 300 μM (FIG. 4)
Compound,Inhibition ratio of OR51E1 response [1],Inhibition of isovaleric acid odor (in words) [2],Inhibition of cresol odor (in words) [3],"Inhibition of OR51E1 response to hexanoic acid (in words) [1, 6]","Inhibition of OR51I2 response to hexanoic acid (in words) [4, 6]","Inhibition ratio of OR51I2 response ([4]; response to hexanoic acid, test substance added together with hexanoic acid, HEK293)",Inhibition of nonanoic acid odor (in words) [5]
"2,4,6-trimethyl-3-cyclohexene-1-carboxyaldehyde, 3,5,6-trimethyl-3-cyclohexene-1-carboxyaldehyde [Isocyclocitral]",1 (Inhibition ratio: 50% or higher),–,–,–,–,–,–
"CC(C)c1cccc(C(C)CC=O)c1 (centres unmarked) [Florhydral, 3-(3-isopropylphenyl)-butyraldehyde]",1 (Inhibition ratio: 50% or higher),the odors were also inhibited,not inhibited,in a concentration-dependent manner,in a concentration-dependent manner,1 (Inhibition ratio: 50% or higher),the odors were also inhibited

# Source: patent US9526680B2, “Method for searching for malodor control agent, malodor control agent, and malodor control method” (Kao Corporation, priority 2010, dated 2016)
